What was measured:
[1] = Liquid; for mass density: Vibrating tube method; for speed of sound: Frequency=3 MHz, Pulse-echo method
[2] = xn = mol fraction of the nth substance listed; details: Liquid, Vibrating tube method, x1 = 1

O=C=O [carbon dioxide]
mass density [kg/m3], [1]
Details | 10000 kPa | 20000 kPa | 30000 kPa | 40000 kPa | 50000 kPa | 60000 kPa | 70000 kPa
303.15 K | 770.5 | 890.1 | 949.2 | 989.1 | 1020 | 1045.8 | 1068
313.15 K | 628.9 | 839.3 | 909.2 | 955.5 | 990.5 | 1019 | 1043.5

O=C=O [carbon dioxide] + CCCCCCCCCCCC
mass density [kg/m3], [2]
Details | 10000 kPa | 20000 kPa | 30000 kPa | 40000 kPa | 50000 kPa | 60000 kPa | 70000 kPa
303.15 K | 770.5 | 890.1 | 949.2 | 989.1 | 1020 | 1045.8 | 1068
313.15 K | 628.9 | 839.3 | 909.2 | 955.5 | 990.5 | 1019 | 1043.5

CCCCCCCCCCCC [dodecane]
[1]
Details | mass density, 303.15 K [kg/m3] | mass density, 313.15 K [kg/m3] | speed of sound, 303.15 K [m/s] | speed of sound, 313.15 K [m/s]
10000 kPa | 748.5 | 741.6 | 1318.5 | 1281.7
20000 kPa | 755.1 | 748.5 | 1372.4 | 1337.9
30000 kPa | 761.3 | 754.8 | 1421.4 | 1389.6
40000 kPa | 766.9 | 760.8 | 1468.5 | 1436.8
50000 kPa | 772 | 766.3 | 1512.3 | 1481.5
60000 kPa | 776.8 | 771.5 | 1553.7 | 1524.2
70000 kPa | 781.4 | 776.4 | 1593.3 | 1564.6

Reference: the NIST ThermoML archive (doi:10.1021/acs.jced.9b00311)
